For test [1], the target named is T1, E. coli DNA gyrase (Escherichia coli (strain K12), UniProt P0AES4+P0AES6). Kind of test: biochemical. The format is biochemical.
The target in test [2] is T1, E. coli DNA gyrase. In words: Agarose gel-based DNA gyrase inhibition assay. The test is classed as biochemical. As for the experimental part: 100 ng of DNA gyrase was used to supercoil the rx pAB1 in the presence of different concentrations of a gyrase inhibitor. […] Samples were analyzed by electrophoresis in 1% w/v agarose gels followed by ethidium bromide staining and photographed under UV light.

[3] abbreviates: IC50 ([…]-50 µM), bin of Table 2.
[4] abbreviates: IC50 (50-200 µM), bin of Table 2.

Structures are written as SMILES.

As to `O=C(O)CCCN1C(=O)C(=Cc2ccc(-c3nc4ccccc4s3)o2)SC1=S` (single isomer, unassigned) [Compound 41], 1.48 µM corresponded to half-maximal inhibition against E. coli DNA gyrase [1] (IC50 (≤15 µM) IC50, Table 2) (IC50).

Regarding `O=C(/C=C/c1ccc(O)c(O)c1)O[C@@H]1CC(O)(C(=O)O)C[C@@H](OC(=O)/C=C/c2ccc(O)c(O)c2)C1O` (stereo partly drawn) [3,5-dicaffeoylquinic acid, reference compound], the “inhibition of E. coli DNA gyrase activities” value (from here on “inhibition”) against E. coli DNA gyrase [1] was “strongly inhibit”. Regarding `CCOC(=O)c1cc(-c2ccc(N3CCOCC3)cc2)nn1-c1ccccc1C(=O)O` [Compound 7], the “inhibition” value against E. coli DNA gyrase [2] (50 µM of compounds) and on E. coli DNA gyrase [2] (200 µM of compounds) was “completely inhibited” each time. This compound came in with an IC50 against E. coli DNA gyrase [1] (setting [3]) of 25 to 50 µM. For the compound `COc1ccc(C2=NN(c3nc(-c4ccccc4)c(CC(=O)O)s3)C(c3ccco3)C2)cc1` (stereo not drawn) [Compound 10], the “inhibition” value against E. coli DNA gyrase [2] (200 µM of compounds) is “completely inhibited”. The IC50 on E. coli DNA gyrase [1] (setting [4]) lay in the range of 50 to 200 µM. Turning to `N#CC(=Cc1ccc(C(=O)O)cc1)c1nc2sc3c(c2c(=O)[nH]1)CCCC3` [Compound 12], the “inhibition” value against E. coli DNA gyrase [2] (50 µM of compounds) and against E. coli DNA gyrase [2] (200 µM of compounds) was “completely inhibited” in each case. The IC50 against E. coli DNA gyrase [1] (setting [3]) is 25 to 50 µM. Consider `Cc1cc(C)c(-c2nc3ccccc3s2)[nH]1` [Compound 13], for which the “inhibition” value at E. coli DNA gyrase [2] (200 µM of compounds) is on record as “almost completely inhibited”. Besides, the IC50 against E. coli DNA gyrase [1] (setting [4]) lay in the range of 50 to 200 µM.

On to `O=C(Nc1nc2cc3c(cc2s1)OCO3)C1CC1` [Compound 15], for which the “inhibition” value at E. coli DNA gyrase [2] (200 µM of compounds) is reported as “completely inhibited”. In addition, the concentration for half-maximal inhibition (IC50) against E. coli DNA gyrase [1] (setting [4]) lay within 50 to 200 µM. Consider `O=C(O)CCN1C(=O)/C(=C/c2ccc(-c3nc4ccccc4s3)o2)SC1=S` [Compound 27], for which the “inhibition” value on E. coli DNA gyrase [2] (50 µM of compounds) and on E. coli DNA gyrase [2] (200 µM of compounds) was “completely inhibited” each time. For `CC(C)(CS(=O)(=O)[O-])NC(=O)CC[N+](C)(C)CCO` [Compound 42], the “inhibition” value against E. coli DNA gyrase [2] (50 µM of compounds) and against E. coli DNA gyrase [2] (200 µM of compounds) was “completely inhibited” throughout. Turning to `CN1C(=O)/C(=C\c2ccc(-c3ccccc3)o2)SC1=S` [Compound 57], the “inhibition” value at E. coli DNA gyrase [2] (200 µM of compounds) is on record as “almost completely inhibited”. `Cc1cc(C)c2c(c1)C(/N=N/c1cc([N+](=O)[O-])ccc1C)C(O)=N2` (stereo not drawn) [Compound 114]: the “inhibition” value on E. coli DNA gyrase [2] (50 µM of compounds) was “completely inhibited”.

For the compound `Cc1cccc2c1N=C(O)C2/N=N/c1ccc(S(N)(=O)=O)cc1` (stereo not drawn) [Compound 116], on E. coli DNA gyrase [2] (50 µM of compounds), the “inhibition” value was “completely inhibited”. Take `Cc1cc(C)c2c(c1)C(=NNc1ccc(C)c(Cl)c1)C(O)=N2` [Compound 132]: at E. coli DNA gyrase [2] (50 µM of compounds), the “inhibition” value is given as “completely inhibited”. For the compound `N#C/C(=C\c1coc2ccc(O)cc2c1=O)C(=O)/N=c1\[nH]c2ccccc2s1` [Compound 165], the “inhibition” value at E. coli DNA gyrase [2] (50 µM of compounds) is “completely inhibited”. Turning to `O=C(O)C(c1ccccc1)N1C(=O)/C(=C\c2ccc(-c3cccc(Cl)c3)o2)SC1=S` (stereo not drawn) [Compound 176], the “inhibition” value at E. coli DNA gyrase [2] (50 µM of compounds) is on record as “completely inhibited”. As to `O=C1/C(=C\c2ccc(O)c([N+](=O)[O-])c2)SC(=S)N1Cc1ccccc1` [Compound 192], the “inhibition” value at E. coli DNA gyrase [2] (50 µM of compounds) was “completely inhibited”. `O=C1NC(=S)S/C1=C/c1cc(Cl)cc(Cl)c1O` [Compound 207]: the “inhibition” value on E. coli DNA gyrase [2] (50 µM of compounds) is “inhibited”; against E. coli DNA gyrase [2] (200 µM of compounds), “completely inhibited”. With `Brc1ccc2c(c1)-c1ccccc1C1=NCCN12` [Compound 217], the “inhibition” value on E. coli DNA gyrase [2] (200 µM of compounds) is “completely inhibited”.

Consider `CN(C)c1ccc(/C=c2\c3ccccc3n3c2cc(-c2ccccc2)[n+]3C)cc1` [Compound 236], for which the “inhibition” value on E. coli DNA gyrase [2] (50 µM of compounds) and on E. coli DNA gyrase [2] (200 µM of compounds) was “completely inhibited” in each case.

Take `COc1ccc2c(c1)/c(=C\c1ccc(N(C)C)cc1)c1cc(-c3ccccc3)[n+](C)n12.O=S(=O)([O-])C(F)(F)F` [Compound 237]: at E. coli DNA gyrase [2] (200 µM of compounds), the “inhibition” value is “completely inhibited”. Turning to `CC1=NN(c2nc(N)nc(/C(C#N)=C\c3ccc([N+](=O)[O-])o3)n2)C(C)(C)C1` [Compound 238], at E. coli DNA gyrase [2] (200 µM of compounds), the “inhibition” value is reported as “completely inhibited”. As for `CCOC(=O)c1cc2c(=Cc3ccc(N(C)C)cc3)c3ccccc3n2[n+]1C.O=S(=O)([O-])C(F)(F)F` [Compound 239], at E. coli DNA gyrase [2] (200 µM of compounds), the “inhibition” value is “completely inhibited”. On the same count and under the same terms, the value for `COc1cccc2nc3c(C(=O)NCCN(C)C)cccc3cc12.Cl` [Compound 240] was “completely inhibited”; that for `CN(C)CCNC(=O)c1cccc2nc3cccc(F)c3nc12.Cl` [Compound 241] was “completely inhibited”; that for `Nc1ccc2cc3ccc(N)cc3nc2c1` [Compound 246] was “completely inhibited”.

In the case of `Nc1c2ccccc2nc2ccccc12` [Compound 247], the “inhibition” value on E. coli DNA gyrase [2] (200 µM of compounds) was “completely inhibited”. Take `CN1/C(=C/c2cc[n+](C)c3ccccc23)Sc2ccccc21.Cc1ccc(S(=O)(=O)[O-])cc1` [Compound 248]: the “inhibition” value on E. coli DNA gyrase [2] (200 µM of compounds) was “completely inhibited”.

For `CN(C)c1ccc2cc3ccc(N(C)C)cc3nc2c1` [Compound 249], the “inhibition” value against E. coli DNA gyrase [2] (200 µM of compounds) was “completely inhibited”.

For the compound `CCOc1ccc2nc3cc(N)ccc3c(N)c2c1` [Compound 257], on E. coli DNA gyrase [2] (200 µM of compounds), the “inhibition” value was “completely inhibited”. Take `CSC1SC2C(=O)N(C)C(C(C)C)C(=O)OCC(NC(=O)c3cnc4ccccc4n3)C(=O)NC(C)C(=O)N(C)C1C(=O)N(C)C(C(C)C)C(=O)OCC(NC(=O)c1cnc3ccccc3n1)C(=O)NC(C)C(=O)N2C` (stereo not drawn) [Compound 258]: the “inhibition” value at E. coli DNA gyrase [2] (200 µM of compounds) is on record as “completely inhibited”. Regarding `O=C(O[C@@H]1Cc2c(O)cc(O)cc2O[C@@H]1c1cc(O)c(O)c(O)c1)c1cc(O)c(O)c(O)c1` [EGCG, epigallocatechin gallate, reference compound], the “inhibition” value at E. coli DNA gyrase [1] was “strongly inhibit”. With `CN1C[C@H](CNC(=O)OCc2ccccc2)C[C@@H]2c3cccc4c3c(cn4C)C[C@H]21` [Metergoline, metergoline, reference compound], the “inhibition” value on E. coli DNA gyrase [1] was “inhibits gyrase activities at 100 and 200 µM”. Take `O=C(OC[C@H]1O[C@@H](OC(=O)c2cc(O)c(O)c(OC(=O)c3cc(O)c(O)c(O)c3)c2)[C@H](OC(=O)c2cc(O)c(O)c(OC(=O)c3cc(O)c(O)c(O)c3)c2)[C@@H](OC(=O)c2cc(O)c(O)c(OC(=O)c3cc(O)c(O)c(O)c3)c2)[C@@H]1OC(=O)c1cc(O)c(O)c(OC(=O)c2cc(O)c(O)c(O)c2)c1)c1cc(O)c(O)c(OC(=O)c2cc(O)c(O)c(O)c2)c1` [Tannic acid, tannic acid]: the IC50 at E. coli DNA gyrase [2] (gel-based, read-out: IC50 against E. coli DNA gyrase) was found to be 1 µM.

Regarding `O=c1oc2c(O)c(O)cc3c(=O)oc4c(O)c(O)cc1c4c23` [ellagic acid, reference compound], the “inhibition” value against E. coli DNA gyrase [1] is on record as “strongly inhibit”. For the compound `Cc1c2cc(O)c(=O)cc-2oc2cc(O)c(O)cc12` [methyl fluorone black], on E. coli DNA gyrase [1] (read-out: IC50 against E. coli DNA gyrase), the IC50 was less than 10 µM. `O=c1ccc2cc3ccoc3cc2o1` [psoralen, reference compound]: the “inhibition” value against E. coli DNA gyrase [1] is on record as “is not a gyrase inhibitor”. As for `O=C(O)c1cc(O)c2c(c1)C(=O)c1cccc(O)c1C2=O` [rhein], the “inhibition” value on E. coli DNA gyrase [1] is listed as “potently inhibited”.

Source of the values: US20230364057A1, “BACTERIAL DNA GYRASE INHIBITORS AND METHODS OF USE THEREOF” (THE FLORIDA INTERNATIONAL UNIVERSITY BOARD OF TRUSTEES, priority 2022, published 2023).
